Experimental data reported in ChEMBL document CHEMBL1138347, “Multi-target-directed drug design strategy: from a dual binding site acetylcholinesterase inhibitor to a trifunctional compound against Alzheimer's disease” (J Med Chem, 2007).

What was measured:
[1] = Inhibition of human AChE-induced amyloid-beta (1-40) aggregation by thioflavin T fluorescene method
[2] = molecular target: Cholinesterase (Homo sapiens, UniProt P06276)
Description: Inhibition of human serum recombinant BChE by Ellman's method

[3] = molecular target: Acetylcholinesterase (Homo sapiens, UniProt P22303)
Sequence of Acetylcholinesterase (P22303 whole entry): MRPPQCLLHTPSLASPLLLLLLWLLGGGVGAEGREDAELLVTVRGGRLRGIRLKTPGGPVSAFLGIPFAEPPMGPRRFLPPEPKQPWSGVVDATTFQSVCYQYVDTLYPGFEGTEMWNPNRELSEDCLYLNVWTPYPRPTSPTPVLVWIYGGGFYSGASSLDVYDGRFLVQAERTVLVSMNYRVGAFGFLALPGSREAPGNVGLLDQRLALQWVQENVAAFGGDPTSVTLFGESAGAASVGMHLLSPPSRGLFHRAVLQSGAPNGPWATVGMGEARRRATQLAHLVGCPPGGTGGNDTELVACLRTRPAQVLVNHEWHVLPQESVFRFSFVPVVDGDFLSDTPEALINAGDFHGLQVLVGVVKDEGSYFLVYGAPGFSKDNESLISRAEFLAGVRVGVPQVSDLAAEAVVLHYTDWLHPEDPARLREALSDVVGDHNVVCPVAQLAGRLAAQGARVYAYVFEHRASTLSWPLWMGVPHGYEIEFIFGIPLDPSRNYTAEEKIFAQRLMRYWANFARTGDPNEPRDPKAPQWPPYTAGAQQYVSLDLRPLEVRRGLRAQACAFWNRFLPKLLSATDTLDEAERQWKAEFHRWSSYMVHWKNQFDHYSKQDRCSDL
Description: Inhibition of human serum recombinant AChE by Ellman's method

Sequence of Cholinesterase (P06276 whole entry): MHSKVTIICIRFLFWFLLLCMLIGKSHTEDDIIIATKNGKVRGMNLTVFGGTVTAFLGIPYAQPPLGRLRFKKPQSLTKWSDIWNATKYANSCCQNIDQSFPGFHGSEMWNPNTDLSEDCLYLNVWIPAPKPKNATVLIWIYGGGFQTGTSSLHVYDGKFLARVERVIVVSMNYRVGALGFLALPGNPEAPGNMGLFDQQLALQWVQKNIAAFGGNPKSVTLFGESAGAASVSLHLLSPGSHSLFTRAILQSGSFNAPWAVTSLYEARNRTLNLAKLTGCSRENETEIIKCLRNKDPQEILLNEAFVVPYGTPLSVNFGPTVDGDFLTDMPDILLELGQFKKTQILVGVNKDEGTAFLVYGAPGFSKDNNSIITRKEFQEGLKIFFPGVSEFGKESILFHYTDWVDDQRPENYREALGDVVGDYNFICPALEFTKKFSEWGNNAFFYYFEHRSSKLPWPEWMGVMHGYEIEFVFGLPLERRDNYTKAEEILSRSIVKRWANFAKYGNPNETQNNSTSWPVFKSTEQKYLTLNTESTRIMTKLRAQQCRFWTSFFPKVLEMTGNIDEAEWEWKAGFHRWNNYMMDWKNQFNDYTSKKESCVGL

Row | SMILES | IC50 [1] [nM] | IC50 [2] [nM] | IC50 [3] [nM]
1 | c1ccc2c(NCCCCCCCNc3c4c(nc5ccccc35)CCCC4)c3c(nc2c1)CCCC3 | 41700 | 5.66 | –
2 | c1ccc2c(NCCOCCOCCNc3c4c(nc5ccccc35)CCCC4)c3c(nc2c1)CCCC3 | – | 35.1 | 19.7
3 | O=C(NCCNc1c2c(nc3ccccc13)CCCC2)C(=O)NCCNc1c2c(nc3ccccc13)CCCC2 | – | 5.44 | 6.65
4 | O=C(CCCNc1c2c(nc3ccccc13)CCCC2)CCCNc1c2c(nc3ccccc13)CCCC2 | – | 11.3 | –
